Activity calls are given as the source filed them. How the calls were made is not given here.
System: CCRIS mutagenicity, Ames/micronucleus/aberration tests
Assay: CCRIS mutagenicity studies
[1] = Test System: AMES SALMONELLA TYPHIMURIUM, Strain/Indicator: TA100, Metabolic Activation: NONE, Method: PREINCUBATION
[2] = Test System: AMES SALMONELLA TYPHIMURIUM, Strain/Indicator: TA100, Method: PREINCUBATION

CCOc1cccc([N+](=O)[O-])c1
mutagenic call (Test System: AMES SALMONELLA TYPHIMURIUM, Strain/Indicator: TA98, Metabolic Activation: NONE, Method: PREINCUBATION): inactive; negative
mutagenic call (Test System: AMES SALMONELLA TYPHIMURIUM, Strain/Indicator: TA98, Method: PREINCUBATION): inactive; negative
mutagenic call [1]: inactive; negative
mutagenic call [2]: inactive; negative
mutagenic call (Test System: AMES SALMONELLA TYPHIMURIUM, Strain/Indicator: TA1535, Metabolic Activation: NONE, Method: PREINCUBATION): inactive; negative
mutagenic call (Test System: AMES SALMONELLA TYPHIMURIUM, Strain/Indicator: TA1535, Method: PREINCUBATION): inactive; negative
mutagenic call (Test System: AMES SALMONELLA TYPHIMURIUM, Strain/Indicator: TA1537, Metabolic Activation: NONE, Method: PREINCUBATION): inactive; negative
mutagenic call (Test System: AMES SALMONELLA TYPHIMURIUM, Strain/Indicator: TA1537, Method: PREINCUBATION): inactive; negative
mutagenic call (Test System: AMES SALMONELLA TYPHIMURIUM, Strain/Indicator: TA1538, Metabolic Activation: NONE, Method: PREINCUBATION): inactive; negative
mutagenic call (Test System: AMES SALMONELLA TYPHIMURIUM, Strain/Indicator: TA1538, Method: PREINCUBATION): inactive; negative

Nc1c2cc([N+](=O)[O-])ccc2nc2ccc([N+](=O)[O-])cc12
mutagenic call (Test System: AMES SALMONELLA TYPHIMURIUM, Strain/Indicator: TA1537, Metabolic Activation: NONE): active; positive

CC(=O)CN(CC(C)=O)N=O
mutagenic call (Test System: AMES SALMONELLA TYPHIMURIUM, Strain/Indicator: TA100, Metabolic Activation: HAMSTER, LIVER, S-9, 3-METHYLCHOLANTHRENE, Method: PREINCUBATION): active; positive
mutagenic call (Test System: AMES SALMONELLA TYPHIMURIUM, Strain/Indicator: TA100, Metabolic Activation: HAMSTER, LIVER, S-9, PHENOBARBITAL, Method: PREINCUBATION): active; positive
mutagenic call (Test System: AMES SALMONELLA TYPHIMURIUM, Strain/Indicator: TA100, Metabolic Activation: HAMSTER, LIVER, S-9, Method: PREINCUBATION): active; positive
mutagenic call (Test System: AMES SALMONELLA TYPHIMURIUM, Strain/Indicator: TA100, Metabolic Activation: HUMAN, LIVER, S-9, Method: PREINCUBATION): active; positive
mutagenic call (Test System: AMES SALMONELLA TYPHIMURIUM, Strain/Indicator: TA100, Metabolic Activation: MONKEY, LIVER, S-9, Method: PREINCUBATION): active; positive
mutagenic call (Test System: AMES SALMONELLA TYPHIMURIUM, Strain/Indicator: TA100, Metabolic Activation: MOUSE, LIVER, S-9, 3-METHYLCHOLANTHRENE, Method: PREINCUBATION): active; positive
mutagenic call (Test System: AMES SALMONELLA TYPHIMURIUM, Strain/Indicator: TA100, Metabolic Activation: MOUSE, LIVER, S-9, PHENOBARBITAL, Method: PREINCUBATION): active; positive
mutagenic call (Test System: AMES SALMONELLA TYPHIMURIUM, Strain/Indicator: TA100, Metabolic Activation: MOUSE, LIVER, S-9, Method: PREINCUBATION): active; positive
mutagenic call [1]: inactive; negative
mutagenic call (Test System: AMES SALMONELLA TYPHIMURIUM, Strain/Indicator: TA100, Metabolic Activation: RABBIT, LIVER, S-9, Method: PREINCUBATION): active; positive
mutagenic call (Test System: AMES SALMONELLA TYPHIMURIUM, Strain/Indicator: TA100, Metabolic Activation: RAT, LIVER, CYTOSOL, PCB, Method: PREINCUBATION): active; positive
mutagenic call (Test System: AMES SALMONELLA TYPHIMURIUM, Strain/Indicator: TA100, Metabolic Activation: RAT, LIVER, MICROSOMES AND CYTOSOL, PCB, Method: PREINCUBATION): active; positive
mutagenic call (Test System: AMES SALMONELLA TYPHIMURIUM, Strain/Indicator: TA100, Metabolic Activation: RAT, LIVER, MICROSOMES AND G6PDH, PCB, Method: PREINCUBATION): active; positive
mutagenic call (Test System: AMES SALMONELLA TYPHIMURIUM, Strain/Indicator: TA100, Metabolic Activation: RAT, LIVER, MICROSOMES, PCB, Method: PREINCUBATION): active; positive
mutagenic call (Test System: AMES SALMONELLA TYPHIMURIUM, Strain/Indicator: TA100, Metabolic Activation: RAT, LIVER, S-9 (HEATED), PCB, Method: PREINCUBATION): active; positive
mutagenic call (Test System: AMES SALMONELLA TYPHIMURIUM, Strain/Indicator: TA100, Metabolic Activation: RAT, LIVER, S-9, 3-METHYLCHOLANTHRENE, Method: PREINCUBATION): active; positive
mutagenic call (Test System: AMES SALMONELLA TYPHIMURIUM, Strain/Indicator: TA100, Metabolic Activation: RAT, LIVER, S-9, AROCLOR 1254, Method: PREINCUBATION): active; positive
mutagenic call (Test System: AMES SALMONELLA TYPHIMURIUM, Strain/Indicator: TA100, Metabolic Activation: RAT, LIVER, S-9, N-BENZYLIMIDAZOLE, Method: PREINCUBATION): active; positive
mutagenic call (Test System: AMES SALMONELLA TYPHIMURIUM, Strain/Indicator: TA100, Metabolic Activation: RAT, LIVER, S-9, PCB, Method: PREINCUBATION): active; positive
mutagenic call (Test System: AMES SALMONELLA TYPHIMURIUM, Strain/Indicator: TA100, Metabolic Activation: RAT, LIVER, S-9, PHENOBARBITAL, Method: PREINCUBATION): active; positive
mutagenic call (Test System: AMES SALMONELLA TYPHIMURIUM, Strain/Indicator: TA100, Metabolic Activation: RAT, LIVER, S-9, Method: PREINCUBATION): active; positive
mutagenic call (Test System: AMES SALMONELLA TYPHIMURIUM, Strain/Indicator: TA100, Metabolic Activation: RAT, LIVER, S-9 WITHOUT NADP+, PCB, Method: PREINCUBATION): active; positive
mutagenic call [2]: active; positive
mutagenic call (Test System: AMES SALMONELLA TYPHIMURIUM, Strain/Indicator: TA104, Metabolic Activation: RAT, LIVER, S-9, AROCLOR 1254, Method: PREINCUBATION): inactive; negative
mutagenic call (Test System: AMES SALMONELLA TYPHIMURIUM, Strain/Indicator: TA1535, Metabolic Activation: RAT, LIVER, S-9, AROCLOR 1254, Method: PREINCUBATION): active; positive
mutagenic call (Test System: AMES SALMONELLA TYPHIMURIUM, Strain/Indicator: TA1975, Metabolic Activation: RAT, LIVER, S-9, AROCLOR 1254, Method: PREINCUBATION): active; positive
mutagenic call (Test System: CHINESE HAMSTER V-79, Strain/Indicator: V-79/6-THIOGUANINE, Metabolic Activation: HAMSTER, PANCREAS, DUCT CELL-MEDIATED, Method: STANDARD PLATE): active; positive
mutagenic call (Test System: CHINESE HAMSTER V-79, Strain/Indicator: V-79/OUABAIN, Metabolic Activation: HAMSTER, HEPATOCYTES, Method: CELL-MEDIATED): active; positive
mutagenic call (Test System: CHINESE HAMSTER V-79, Strain/Indicator: V-79/OUABAIN, Metabolic Activation: HAMSTER, PANCREAS, ACINAR CELL-MEDIATED, Method: STANDARD PLATE): active; positive

C=CCN1CCC=C2c3nc(NC(C)=O)sc3CCC21 (configuration not stated)
mutagenic call (Test System: AMES SALMONELLA TYPHIMURIUM, Strain/Indicator: TA1538, Metabolic Activation: RAT, LIVER, S-9, AROCLOR 1254, Method: STANDARD PLATE): inactive; negative

CC(C)=CC(=O)C=C(C)C
mutagenic call (Test System: MOUSE LYMPHOMA, Strain/Indicator: L5178Y (TK+/TK-), Metabolic Activation: NONE, Method: SUSPENSION/PLATE): inactive; negative

CCc1cccc2c3c([nH]c12)C(CC)(CC(=O)O)OCC3 (configuration not stated)
mutagenic call (Test System: AMES SALMONELLA TYPHIMURIUM, Strain/Indicator: TA98, Metabolic Activation: NONE, Method: STANDARD PLATE): inactive; negative
mutagenic call (Test System: AMES SALMONELLA TYPHIMURIUM, Strain/Indicator: TA98, Metabolic Activation: RAT, LIVER, S-9, AROCLOR 1254, Method: STANDARD PLATE): inactive; negative
mutagenic call (Test System: AMES SALMONELLA TYPHIMURIUM, Strain/Indicator: TA100, Metabolic Activation: NONE, Method: STANDARD PLATE): inactive; negative
mutagenic call (Test System: AMES SALMONELLA TYPHIMURIUM, Strain/Indicator: TA100, Metabolic Activation: RAT, LIVER, S-9, AROCLOR 1254, Method: STANDARD PLATE): inactive; negative
mutagenic call (Test System: AMES SALMONELLA TYPHIMURIUM, Strain/Indicator: TA1535, Metabolic Activation: NONE, Method: STANDARD PLATE): inactive; negative
mutagenic call (Test System: AMES SALMONELLA TYPHIMURIUM, Strain/Indicator: TA1535, Metabolic Activation: RAT, LIVER, S-9, AROCLOR 1254, Method: STANDARD PLATE): inactive; negative
mutagenic call (Test System: AMES SALMONELLA TYPHIMURIUM, Strain/Indicator: TA1537, Metabolic Activation: NONE, Method: STANDARD PLATE): inactive; negative
mutagenic call (Test System: AMES SALMONELLA TYPHIMURIUM, Strain/Indicator: TA1537, Metabolic Activation: RAT, LIVER, S-9, AROCLOR 1254, Method: STANDARD PLATE): inactive; negative
mutagenic call (Test System: E. COLI, Strain/Indicator: WP2 UVRA, Metabolic Activation: NONE, Method: STANDARD PLATE): inactive; negative
mutagenic call (Test System: E. COLI, Strain/Indicator: WP2 UVRA, Metabolic Activation: RAT, LIVER, S-9, AROCLOR 1254, Method: STANDARD PLATE): inactive; negative
